{
  "source": "patent US20130195926A1",
  "about": "“MODULATION OF NITRIC OXIDE SIGNALING TO NORMALIZE TUMOR VASCULATURE” (The General Hospital Corporation, priority 2007, published 2013)",
  "key": {"[1]": {"system": "10T1/2 cells", "assay": "Transwell migration of 10T1/2 cells toward HUVECs", "type": "cell-based", "experimental": "FIGS. 13A-C show the role of the NO-sGC-cGMP pathway in perivascular cell recruitment and migration. (A) In bar graph form, cGMP production in cultured 10T1/2 cells in response to NO donor or PDE5 inhibitor. (B) In bar graph form, the migration of 10T1/2 cells in a transwell assay. 10T1/2 cell migration was assessed using Falcon HTS FluoroBlok inserts with 1 μm pores. GFP-expressing 10T1/2 cells were inoculated in the inserts, and HUVECs were inoculated in the outer well. Percent area of transwell filter covered by migrated 10T1/2 cells was determined. Medium only indicates no HUVECs in the outer well. ODQ, T-1032, Sildenafil, or Sildenafil+L-NMMA were added to the medium. *P<0.05 vs. control (HUVEC). (C) Images for transmigrated GFP-10T1/2 cells at the back side of the Fluoroblock insert after 10 hours with control vs. T-1032 treatment.\nFIGS. 14A-B show the effect of PI3K inhibition on transwell migration of 10T1/2 cells toward HUVECs. 10T1/2 cell migration was assessed using Falcon HTS FluoroBlock inserts with 1 μm pores. GFP-expressing 10T1/2 cells were inoculated in the inserts and human umbilical vein endothelial cells (HUVECs) were inoculated in the outer well. (A) Images for transmigrated GFP-10T1/2 cells at the back side of the FluoroBlock insert after 16 hours. Images are 865 μm across. (B) Quantification of 10T1/2 cell transwell migration. Data are expressed as percentage relative to the control (HUVEC) migration of the same experimental batch. Medium represents no HUVECs in the outer well. LS294002 10 μM was added. n=4 each. *p<0.05 as compared to the control (HUVEC).\nThe effect of sGC inhibitor was next examined on 10T1/2 cell migration. […] Finally, the effect of PDE5 inhibitors on 10T1/2 cell migration was examined. […] L-NMMA abolished induction of 10T1/2 cell migration induced by Sildenafil. (Mann-Whitney U-test).\nTo elucidate the downstream signaling pathway of NO-dependent perivascular cell recruitment, the effect of PI3K inhibitor […] (10 μM) on the transwell 10T1/2 cell migration toward HUVECs was determined (FIG. 14A-B)."}, "[2]": {"system": "U87MG tumors", "assay": "Vessel morphology of U87 tumors in the cranial window by intravital microscopy", "type": "in vivo, mice", "details": "L-NMMA 7 mg/day by osmotic pump vs D-NMMA, SCID mice", "experimental": "(§1) Recombination activating gene 1 (Rag-1^−/−) mice backcrossed to C57BL/6 background or severe combined immunodeficiency (SCID) mice, bred and maintained in an gnotobiotic animal facility, were used. To obtain source tumor tissue, U87 tumor cells in culture (1×10^6 cells) were injected subcutaneously into Rag-1^−/− or SCID mice matching the recipient mice. When the tumor reached about 8 mm in diameter, it was excised after euthanasia and a small piece (about 1 mm^3) of viable tumor tissue was implanted into a cranial window or subcutaneously into the calf area of the right hindlegs of the mice as previously described (Kashiwagi, S., et al. 2005 J. Clin. Invest. 115, 1816-1827; Kozin, S. V., et al. 2001 Cancer Research 61, 39-44). All animal procedures were carried oat following the Public Health Service Policy on Humane Care of Laboratory Animals and approved by the Institutional Animal Care and Use Committee of Massachusetts General Hospital. […]\nAngiogenesis and vessel morphology were determined in U87 and GL261 tumors grown in the cranial windows by intravital microscopy using multiphoton laserscanning microscopy (MPLSM) or single photon fluorescence microscopy (SPFM) when tumors reached about 7 mm^2. […] Using MPLSM, five locations with 200-μm thick imaging stack were recorded for each tumor. […]\n(§2) Vascular parameters such as functional vessel density (the total length of perfused microvessels per unit area) and vessel diameter were analyzed by tracing each vessel segment using NIH image 1.63 as described elsewhere (Kashiwagi, S., et al. 2005 J. Clin. Invest. 115, 1816-1827). Tissue distribution of NO was visualized using MPLSM and the NO-sensitive fluorescence probe 4,5-diaminofluorescein (DAF-2) (0.5 mg i.v. Daiichi Pure Chemicals Co. Ltd) as described previously (Kashiwagi, S., et al. 2005 J. Clin. Invest. 115, 1816-1827). NO converts DAF-2 to 4,5-diaminofluorescein triazolium (DAF-2T) increasing fluorescence by a factor of 200. The DAF-2 associated fluorescence images were captured 60 min after i.v. injection. […]"}, "[3]": {"system": "U87 gliomas", "assay": "NO distribution in U87 gliomas by DAF-2T fluorescence (MPLSM)", "type": "in vivo, mice", "details": "animals treated with L-NMMA compared to D-NMMA", "experimental": "FIGS. 3A-B show microfluorographs depicting NO distribution in U87 gliomas grown in the cranial window in Rag-1^−/−. NO production was visualized by means of DAF-2T fluorescence 0, 20, 40 and 60 min after DAF-2 (0.5 mg/body) injection. Left column, micro-angiography with tetramethylrhodamine-dextran (2000 kDa). Middle column, representative DAF-2T microfluorography captured 60 min after the loading of DAF-2 in tumors. Right column, pseudocolor representation of DAF-2T microfluorographs. […] Bars indicate 100 μm. (A) NO distribution in parental U87MG (top row) or nNOS shRNA58-transfected-U87 (bottom row) tumors. […]\nas §2"}, "[4]": {"system": "nNOS", "assay": "Western blot of nNOS knockdown in cultured nNOS shRNA-transfected U87 cells", "type": "cell-based, human", "experimental": "U87MG (American Type Culture Collection HTB-14) and GL261 (generous gift from Dr. G. Yancey Gillespie at University of Alabama) tumor cells were cultured in Dulbecco's Modified Eagle's Medium with 10% fetal bovine serum at 37° C. in a humidified 5% CO2 incubator. The following short-hairpin RNAs (shRNAs) for nNOS were designed using a commercial service program for small interfering RNA (siRNA) target finder (http://www.ambion.com/techlib/misc/siRNA_finder.html): nNOS-shRNA58, CAAAGAGATCGACACCATC (sense), […] (antisense); nNOSshRNA97, CACGCATGTCTGGAAAGGC (sense), […](antisense); nNOS-shRNA150, GGTCTATCCAATGTCCACA (sense), […] (antisense). The DNA oligonucleotides consist of a 19-nucleotide sense siRNA sequence linked to its reverse complementary antisense siRNA sequence by a short spacer (TTCAAGAGA).\nEach DNA oligonucleotide was prepared with nucleotide overhangs with BamHI and HindIII restriction sites added to the 5′ and 3′ end of the DNA oligonucleotides and subcloned into the pSilencer 3.1 H-1-hygro (Ambion) that allows transcription of the shRNA. These expression vectors were stably transfected into U87MG cells using LipofectAMINE 2000 (Invitrogen) following the manufacturer's instruction.\nThe stably transfected cells were selected with 80 μg/ml of hygromycin B. The expression of nNOS protein in U87 tumor cells and tissues was determined by'Western blot analysis. […]\nEqual amounts of 60 micrograms of protein per sample were separated on 7.5% SDS polyacrylamide gels, transferred onto polyvinylidene fluoride membrane (Millipore), incubated with primary antibodies followed by secondary antibodies (the same antibodies used in immunohistochemistry studies. See Immunohistochemistry methods below), and detected using enhanced chemiluminescence (GE Healthcare) by exposure on autoradiography films (Kodak) (Xu, L., et al. 2005 Cancer Res. 65, 5711-5719; Canneliet, P., et al. 1998 Nature 394, 485-490; Xu, L., et al. 2002 Journal of Biological Chemistry 277, 11368-11374 (2002); and Xu, L., et al. 2004 Clinical Cancer Research 10, 701-707). […]"}, "[5]": {"system": "nNOS", "assay": "Western blot of nNOS knockdown in U87 tumors grown in cranial windows", "type": "in vivo", "details": "U87 tumors in cranial windows in Rag-1-/- mice", "experimental": "The stably transfected cells were selected with 80 μg/ml of hygromycin B. The expression of nNOS protein in U87 tumor cells and tissues was determined by'Western blot analysis. Cultured U87MG cells washed with PBS and U87MG tumors homogenized by a tissue grinder were solubilized in 40 mM Tris-HCl, pH 6.8, 2% SDS, 10% glycerol, 1% β-mercaptoethanol, 0.01% bromophenol blue with one Complete Mini Protease Inhibitor Cocktail tablet (Roche Diagnostics) per 50 ml buffer.\nEqual amounts of 60 micrograms of protein per sample were separated on 7.5% SDS polyacrylamide gels, transferred onto polyvinylidene fluoride membrane (Millipore), incubated with primary antibodies followed by secondary antibodies (the same antibodies used in immunohistochemistry studies. See Immunohistochemistry methods below), and detected using enhanced chemiluminescence (GE Healthcare) by exposure on autoradiography films (Kodak) (Xu, L., et al. 2005 Cancer Res. 65, 5711-5719; Canneliet, P., et al. 1998 Nature 394, 485-490; Xu, L., et al. 2002 Journal of Biological Chemistry 277, 11368-11374 (2002); and Xu, L., et al. 2004 Clinical Cancer Research 10, 701-707).\nas §1, with “39-44).” for “39-44). All animal procedures were carried oat following the Public Health Service Policy on Humane Care of Laboratory Animals and approved by the Institutional Animal Care and Use Committee of Massachusetts General Hospital.”\nU87 with nNOS shRNA (shRNA58, shRNA97, and shRNA150) were grown in cranial windows in Rag-1^−/− mice. Expression of nNOS in these tumors was determined by Western blot analysis. […]"}},
  "data": [
    {"molecule": "CCCc1nn(C)c2c(=O)[nH]c(-c3cc(S(=O)(=O)N4CCN(C)CC4)ccc3OCC)nc12", "note": "[Sildenafil]", "values": [
      {"measurement": "10T1/2 cell migration", "setting": "[1]; 40 nM", "value": "significantly enhanced"}
    ]},
    {"molecule": "O=c1cc(N2CCOCC2)oc2c(-c3ccccc3)cccc12", "note": "[LY291002]", "values": [
      {"measurement": "transwell 10T1/2 cell migration toward HUVECs", "setting": "[1]; 10 μM, 16 hours", "value": "significantly inhibited"}
    ]},
    {"molecule": "O=c1onc2cnc3ccccc3n12", "note": "[ODQ]", "values": [
      {"measurement": "10T1/2 cell migration to HUVECs", "setting": "[1]; 10μM", "value": "significantly reduced"}
    ]},
    {"molecule": "CC(=O)O.CNC(=N)NCCC[C@H](N)C(=O)O", "note": "[L-NMMA, NG-Monomethyl-L-arginine monoacetate]", "values": [
      {"measurement": "induction of 10T1/2 cell migration induced by Sildenafil", "setting": "[1]; Sildenafil+L-NMMA", "value": "abolished"},
      {"measurement": "vessel density", "setting": "[2]", "value": "decreased"},
      {"measurement": "vessel diameter", "setting": "[2]", "value": "increased"},
      {"measurement": "DAF-associated fluorescence (NO production)", "setting": "[3]", "value": "abolished"}
    ]},
    {"molecule": "shRNA97: short-hairpin RNA for nNOS, CACGCATGTCTGGAAAGGC (sense), GCCTTTCCAGACATGCGTGTT (antisense), in pSilencer 3.1 H-1-hygro", "values": [
      {"measurement": "Knockdown efficiency of nNOS in vitro", "setting": "[4]", "value": 98, "unit": "%"},
      {"measurement": "Knockdown efficiency of nNOS in vivo", "setting": "[5]", "value": 67, "unit": "%"}
    ]}
  ]
}
